From patent US20140322296A1, “PIPERAQUINE MICROCAPSULES AND COMPOSITIONS CONTAINING THEM” (Aptalis Pharma S.r.l., priority 2013, published 2014)

Assay: Compatibility of piperaquine with the coacervation process (heating/cooling thermal cycles)
Format: physicochemical
Procedure: 1. Methods for Characterization • Particle size distribution (PSD): an amount of microcapsules in the range of 25-50 g of microcapsules is poured into a 100 mL HDPE bottle, 0.2% (w/w) of Syloid 244 (colloidal silicon dioxide, WR Grace, Columbia, Md.) and manually blended for 2 minutes; the mixture of microcapsules and Syloid 244 is sieved then with a digital Octagon apparatus for 10 minutes at amplitude 7. • Bulk density and tapped density of powders is measured according to Method USP 34 <616>. • Dissolution profile: Ph Eur [2.9.3]; apparatus n^o 2; dissolution medium: gastric simulated fluid pH 1.2 0.5% of Tween 80 without pepsin; dissolution medium volume: 900 mL; • dissolution medium temperature: 37±0.5° C.; withdrawal at: 5, 15, 30, 60 and 120 min. • Water content: Karl Fischer titration: Ph. Eur. 2.5.12 Method; following sample titration conditions are applied: sample solvent: methanol:formamide 1:1; sample weight: 50 mg; the value of water content in a sample is expressed as % w/w. • Residual cyclohexane: gas-chromatography (head space analysis). • Photostability Testing: ICH conditions “Q1B: Photostability (Option 1)”. • X-Ray Powder Diffraction (XRPD) measurements are performed on a Philips X'Pert PRO diffractometer (Bragg-Brentano geometry). • IR identity. A compatibility study is carried out on piperaquine to assess the compatibility of the drug with the coacervation process. In particular, piperaquine undergoes heating/cooling cycles mimicking thermal excursions of the process. Then, the following tests are performed both before and after thermal cycles to ascertain the stability of piperaquine: water content analysis (Karl Fisher test); effect of mechanical stress; crystalline structure by XRPD.

Assay (%) (PQP•4H2O) (after thermal cycle): 99.9%
Water content (%) (after thermal cycle): 8.5%
Assay (%) (PQP•4H2O) (before thermal cycle): 99.9%
Water content (%) (before thermal cycle): 8.9%
Effect of heating/cooling cycle on the drug (thermal excursions mimicking the coacervation process): not affected by heating/cooling cycle
SMILES: Clc1ccc2c(N3CCN(CCCN4CCN(c5ccnc6cc(Cl)ccc56)CC4)CC3)ccnc2c1 [PQP•4H2O, 4,4′-(1,3-propanediyldi-4,1-piperazinediyl)bis(7-chloroquinoline)phosphate hydrate (1:4:4)]
